Active and inactive are the calls of the source.
How the values were obtained:
Nonstructural protein 1 = Nonstructural protein 1 (Influenza A virus, UniProt Q194T2); assay type: functional, Influenza A virus (A/California/07/2009(H1N1))
[1] = molecular target: T1, Short transient receptor potential channel 4 (Mus musculus, UniProt Q9QUQ5); assay: mouse TRPC4 channel activators, dose response, cell-based, HEK293 TRPC4/mu-opioid, Fluo-4 calcium (AID 434937); assay type: functional
T1 sequence (Q9QUQ5 whole entry): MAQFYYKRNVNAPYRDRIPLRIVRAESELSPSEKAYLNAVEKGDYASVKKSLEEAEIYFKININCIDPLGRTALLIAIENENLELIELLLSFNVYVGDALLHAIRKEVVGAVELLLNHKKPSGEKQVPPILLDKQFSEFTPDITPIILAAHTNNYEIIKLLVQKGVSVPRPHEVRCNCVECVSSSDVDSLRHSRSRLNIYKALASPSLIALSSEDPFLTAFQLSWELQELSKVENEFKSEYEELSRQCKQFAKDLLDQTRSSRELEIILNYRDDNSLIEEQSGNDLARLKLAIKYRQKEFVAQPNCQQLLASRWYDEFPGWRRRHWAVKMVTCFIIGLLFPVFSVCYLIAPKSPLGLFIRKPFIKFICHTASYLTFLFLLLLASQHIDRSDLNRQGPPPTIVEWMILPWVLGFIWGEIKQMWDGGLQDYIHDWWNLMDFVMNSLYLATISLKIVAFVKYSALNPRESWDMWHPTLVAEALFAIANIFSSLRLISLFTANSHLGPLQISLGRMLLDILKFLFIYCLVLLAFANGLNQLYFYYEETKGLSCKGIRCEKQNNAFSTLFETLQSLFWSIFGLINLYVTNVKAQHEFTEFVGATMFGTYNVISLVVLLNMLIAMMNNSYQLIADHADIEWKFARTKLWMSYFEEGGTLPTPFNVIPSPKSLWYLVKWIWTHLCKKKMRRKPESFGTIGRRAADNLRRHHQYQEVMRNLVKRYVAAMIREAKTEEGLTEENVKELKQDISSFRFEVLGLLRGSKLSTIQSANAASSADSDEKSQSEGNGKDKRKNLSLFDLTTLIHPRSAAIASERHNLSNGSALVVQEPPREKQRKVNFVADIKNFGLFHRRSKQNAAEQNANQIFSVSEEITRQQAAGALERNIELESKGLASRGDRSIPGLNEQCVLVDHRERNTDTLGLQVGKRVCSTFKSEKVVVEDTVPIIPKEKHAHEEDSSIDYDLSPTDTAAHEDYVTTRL

[2] = inhibitors of intracellular T. cruzi replication, confirmation, NIH3T3 host cells, beta-gal luminescence (AID 2044); assay type: functional, cell-based;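 also: intracellular parasites grown in NIH/3T3 mouse fibroblasts as host cells; luminescent beta-galactosidase reporter signal from transgenic T. cruzi replicating inside host cells; inhibitors lower the luminescence signal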
[3] = cytotoxicity toward NIH3T3 fibroblasts, dose response, counter-screen, cell-based, ATP luminescence, mouse fibroblasts (AID 2010); assay type: functional;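 also: cells exposed to compound for about 90 hours before reading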
[4] = molecular target: 5-hydroxytryptamine receptor 5A (Homo sapiens, UniProt P47898); assay: Counterscreen for agonists of OPRM1-OPRD1 heterodimerization: luminescence-based cell-based high throughput dose response assay to identify agonists of 5-hydroxytryptamine (serotonin) 5A receptor (HTR5A). [Related pubchem assays (depositor defined):AID504326, AID504355, AID504692, AID504904, AID504905]; assay type: functional
5-hydroxytryptamine receptor 5A, sequence (P47898 whole entry): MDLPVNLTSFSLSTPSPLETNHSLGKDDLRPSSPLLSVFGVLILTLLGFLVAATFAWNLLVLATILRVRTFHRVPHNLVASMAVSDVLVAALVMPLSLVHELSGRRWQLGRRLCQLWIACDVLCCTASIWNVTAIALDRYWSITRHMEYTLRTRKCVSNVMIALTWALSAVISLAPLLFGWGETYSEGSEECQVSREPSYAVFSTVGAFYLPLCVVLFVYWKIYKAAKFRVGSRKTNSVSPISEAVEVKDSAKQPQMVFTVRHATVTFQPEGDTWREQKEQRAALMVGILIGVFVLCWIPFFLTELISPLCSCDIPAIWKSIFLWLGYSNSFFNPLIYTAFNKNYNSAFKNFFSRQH

[5] = molecular target: Delta-type opioid receptor (Homo sapiens, UniProt P41143); assay: Counterscreen for agonists of heterodimerization of the mu 1 (OPRM1) and delta 1 (OPRD1) opioid receptors: Luminescence-based cell-based high throughput dose response assay to identify agonists of OPRD1 homodimerization. [Related pubchem assays (depositor defined):AID504326, AID504355, AID504692, AID504904, AID504905]; assay type: functional
Delta-type opioid receptor, sequence (P41143 whole entry): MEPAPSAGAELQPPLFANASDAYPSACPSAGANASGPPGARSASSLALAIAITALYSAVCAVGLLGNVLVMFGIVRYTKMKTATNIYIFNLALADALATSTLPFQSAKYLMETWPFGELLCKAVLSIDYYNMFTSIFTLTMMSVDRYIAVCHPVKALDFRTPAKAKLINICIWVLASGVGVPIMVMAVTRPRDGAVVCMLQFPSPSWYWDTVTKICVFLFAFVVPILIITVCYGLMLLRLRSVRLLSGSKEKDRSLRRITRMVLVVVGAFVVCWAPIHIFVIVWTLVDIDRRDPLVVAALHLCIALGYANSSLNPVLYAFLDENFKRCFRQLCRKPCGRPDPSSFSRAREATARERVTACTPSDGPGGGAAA

Mu-type opioid receptor = Mu-type opioid receptor (Homo sapiens, UniProt P35372); assay: Counterscreen for agonists of heterodimerization of the mu 1 (OPRM1) and delta 1 (OPRD1) opioid receptors: Luminescence-based cell-based high throughput dose response assay to identify agonists of OPRM1 homodimerization.; assay type: functional;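 also: U2OS cells expressing OPRM1 and beta-arrestin as split beta-galactosidase partners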
Mu-type opioid receptor, sequence (P35372 whole entry): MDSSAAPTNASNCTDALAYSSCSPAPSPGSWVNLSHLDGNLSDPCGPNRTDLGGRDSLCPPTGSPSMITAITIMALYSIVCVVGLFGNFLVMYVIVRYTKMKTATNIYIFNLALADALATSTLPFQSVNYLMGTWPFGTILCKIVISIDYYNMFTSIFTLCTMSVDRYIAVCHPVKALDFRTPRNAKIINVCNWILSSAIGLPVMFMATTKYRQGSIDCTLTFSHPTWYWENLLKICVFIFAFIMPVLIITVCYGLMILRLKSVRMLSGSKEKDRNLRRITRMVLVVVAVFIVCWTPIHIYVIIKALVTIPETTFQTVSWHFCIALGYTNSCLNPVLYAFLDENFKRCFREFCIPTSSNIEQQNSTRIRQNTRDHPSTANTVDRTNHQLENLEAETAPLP

Escherichia coli [6] = assay: microbe, parasite or virus in culture
Escherichia coli [7] = assay: microbe, parasite or virus in culture; remark: listed apart in the source
A-375 [8] = assay: A375 melanoma cell viability reduction, dose response, counter-screen for MITF modulator project, cherry-pick samples, set 2 (AID 540335); assay type: functional, cell-based; details: Homo sapiens
A-375 [9] = assay: MITF: Counter assay: A375 proliferation Measured in Cell-Based System Using Plate Reader - 2084-03_Inhibitor_Dose_DryPowder_Activity. [Related pubchem assays (depositor defined):AID488944]; assay type: functional; details: Homo sapiens
CAAX prenyl protease 2 = CAAX prenyl protease 2 (Homo sapiens, UniProt Q9Y256); assay: human Rce1 protease inhibitors, dose response, biochemical, yeast membranes, quenched-peptide fluorescence, cherry-pick (AID 588849)
CAAX prenyl protease 2, sequence (Q9Y256 whole entry): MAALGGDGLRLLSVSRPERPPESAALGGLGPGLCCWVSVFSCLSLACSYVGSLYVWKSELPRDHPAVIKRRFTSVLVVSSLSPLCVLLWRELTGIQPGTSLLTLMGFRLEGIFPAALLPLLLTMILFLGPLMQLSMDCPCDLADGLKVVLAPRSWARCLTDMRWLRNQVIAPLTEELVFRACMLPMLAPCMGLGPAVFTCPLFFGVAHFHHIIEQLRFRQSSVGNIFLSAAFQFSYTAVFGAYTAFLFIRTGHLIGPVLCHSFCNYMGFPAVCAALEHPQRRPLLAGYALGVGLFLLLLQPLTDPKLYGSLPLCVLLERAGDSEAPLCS

Trypsin = Trypsin (Sus scrofa, UniProt P00761); assay: porcine trypsin inhibitors, dose response, selectivity assay for Rce1 protease inhibitor project, biochemical, quenched peptide fluorescence, cherry-pick (AID 488789)
Trypsin, sequence (P00761 whole entry): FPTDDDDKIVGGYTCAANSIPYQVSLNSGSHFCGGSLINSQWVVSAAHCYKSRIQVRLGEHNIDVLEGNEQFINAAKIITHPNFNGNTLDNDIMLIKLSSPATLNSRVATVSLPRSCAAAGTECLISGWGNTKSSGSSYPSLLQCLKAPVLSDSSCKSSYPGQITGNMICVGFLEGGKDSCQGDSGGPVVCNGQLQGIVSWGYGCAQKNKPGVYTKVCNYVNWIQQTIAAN

[10] = molecular target: Dual specificity protein kinase CLK1 (Homo sapiens, UniProt P49759); assay: CLK1 kinase inhibitors, off-target check, dose response, selectivity assay for Dyrk1A inhibitor project, biochemical, cherry-picked samples (AID 588811)
Dual specificity protein kinase CLK1, sequence (P49759 whole entry): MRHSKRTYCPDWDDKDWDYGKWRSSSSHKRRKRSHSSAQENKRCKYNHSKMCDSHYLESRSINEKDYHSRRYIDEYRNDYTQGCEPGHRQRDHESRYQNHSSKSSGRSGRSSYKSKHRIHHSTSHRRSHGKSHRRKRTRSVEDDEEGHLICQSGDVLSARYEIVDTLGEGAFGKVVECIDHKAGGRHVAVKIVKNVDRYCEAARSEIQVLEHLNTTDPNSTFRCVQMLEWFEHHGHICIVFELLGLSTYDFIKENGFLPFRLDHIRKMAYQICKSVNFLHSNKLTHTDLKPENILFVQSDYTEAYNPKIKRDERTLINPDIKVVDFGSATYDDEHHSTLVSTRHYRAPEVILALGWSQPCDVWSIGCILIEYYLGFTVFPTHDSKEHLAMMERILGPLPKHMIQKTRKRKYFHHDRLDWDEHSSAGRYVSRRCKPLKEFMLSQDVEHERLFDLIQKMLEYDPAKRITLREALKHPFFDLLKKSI

[11] = molecular target: T2, Sentrin-specific protease 8 (Homo sapiens, UniProt Q96LD8); assay: SENP8 protease inhibitors, SAR follow-up, biochemical, luminescence, set 2 (AID 588601); assay type: functional
T2 sequence (Q96LD8 whole entry): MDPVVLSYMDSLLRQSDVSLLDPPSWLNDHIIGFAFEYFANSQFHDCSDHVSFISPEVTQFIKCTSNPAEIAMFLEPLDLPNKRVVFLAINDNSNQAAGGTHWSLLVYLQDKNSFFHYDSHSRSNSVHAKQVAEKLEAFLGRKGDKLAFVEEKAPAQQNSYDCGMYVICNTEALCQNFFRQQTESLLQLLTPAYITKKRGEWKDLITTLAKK

Caspase-3 = molecular target: T3, Caspase-3 (Homo sapiens, UniProt P42574); assay: caspase-3 inhibitors as off-family protease, SAR follow-up, selectivity assay for SENP protease inhibitor project, biochemical, luminescence, set 2 (AID 588599); assay type: functional
T3 sequence (P42574 whole entry): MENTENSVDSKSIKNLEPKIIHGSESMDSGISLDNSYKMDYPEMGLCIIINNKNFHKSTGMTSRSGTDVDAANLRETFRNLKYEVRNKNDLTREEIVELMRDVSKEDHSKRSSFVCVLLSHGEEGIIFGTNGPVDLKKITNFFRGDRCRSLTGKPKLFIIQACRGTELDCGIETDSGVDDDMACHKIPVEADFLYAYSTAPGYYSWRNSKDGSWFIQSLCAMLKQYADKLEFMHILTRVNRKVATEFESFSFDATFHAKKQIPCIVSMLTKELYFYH

[12] = molecular target: T4, Sentrin-specific protease 6 (Homo sapiens, UniProt Q9GZR1); assay: SENP6 protease inhibitors, SAR follow-up, biochemical, luminescence, set 2 (AID 588598); assay type: functional
T4 sequence (Q9GZR1 whole entry): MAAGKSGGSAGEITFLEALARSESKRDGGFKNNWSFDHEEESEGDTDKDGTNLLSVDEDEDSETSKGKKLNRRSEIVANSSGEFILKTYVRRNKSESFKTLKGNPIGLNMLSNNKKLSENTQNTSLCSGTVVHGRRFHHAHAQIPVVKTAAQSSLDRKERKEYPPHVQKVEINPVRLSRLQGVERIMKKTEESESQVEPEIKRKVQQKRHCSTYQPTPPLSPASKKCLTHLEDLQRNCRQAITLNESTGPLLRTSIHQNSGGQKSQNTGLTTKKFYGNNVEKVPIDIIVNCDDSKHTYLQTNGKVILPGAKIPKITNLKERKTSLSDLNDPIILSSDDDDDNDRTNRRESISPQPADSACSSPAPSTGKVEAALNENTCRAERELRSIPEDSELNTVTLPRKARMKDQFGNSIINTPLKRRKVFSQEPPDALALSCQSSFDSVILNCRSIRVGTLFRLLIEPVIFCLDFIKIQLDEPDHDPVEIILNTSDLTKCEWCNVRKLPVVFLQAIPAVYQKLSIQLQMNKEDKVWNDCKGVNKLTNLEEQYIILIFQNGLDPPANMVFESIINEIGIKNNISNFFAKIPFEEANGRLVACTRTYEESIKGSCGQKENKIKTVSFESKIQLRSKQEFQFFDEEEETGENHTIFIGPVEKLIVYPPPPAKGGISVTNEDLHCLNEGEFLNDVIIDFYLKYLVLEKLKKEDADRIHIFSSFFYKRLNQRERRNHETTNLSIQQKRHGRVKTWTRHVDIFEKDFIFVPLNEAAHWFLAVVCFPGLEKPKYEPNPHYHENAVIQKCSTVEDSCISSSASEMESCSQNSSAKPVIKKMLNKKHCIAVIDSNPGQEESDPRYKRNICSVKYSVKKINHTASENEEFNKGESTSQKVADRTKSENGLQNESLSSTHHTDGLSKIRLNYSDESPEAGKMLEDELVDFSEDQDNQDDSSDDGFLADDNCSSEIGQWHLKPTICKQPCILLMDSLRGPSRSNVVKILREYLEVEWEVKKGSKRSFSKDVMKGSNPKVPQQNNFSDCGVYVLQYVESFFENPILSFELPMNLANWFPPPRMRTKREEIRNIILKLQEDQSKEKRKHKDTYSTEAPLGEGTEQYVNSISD

[13] = molecular target: T5, Sentrin-specific protease 7 (Homo sapiens, UniProt Q9BQF6); assay: SENP7 protease inhibitors, SAR follow-up, biochemical, luminescence, set 2 (AID 588600); assay type: functional
T5 sequence (Q9BQF6 whole entry): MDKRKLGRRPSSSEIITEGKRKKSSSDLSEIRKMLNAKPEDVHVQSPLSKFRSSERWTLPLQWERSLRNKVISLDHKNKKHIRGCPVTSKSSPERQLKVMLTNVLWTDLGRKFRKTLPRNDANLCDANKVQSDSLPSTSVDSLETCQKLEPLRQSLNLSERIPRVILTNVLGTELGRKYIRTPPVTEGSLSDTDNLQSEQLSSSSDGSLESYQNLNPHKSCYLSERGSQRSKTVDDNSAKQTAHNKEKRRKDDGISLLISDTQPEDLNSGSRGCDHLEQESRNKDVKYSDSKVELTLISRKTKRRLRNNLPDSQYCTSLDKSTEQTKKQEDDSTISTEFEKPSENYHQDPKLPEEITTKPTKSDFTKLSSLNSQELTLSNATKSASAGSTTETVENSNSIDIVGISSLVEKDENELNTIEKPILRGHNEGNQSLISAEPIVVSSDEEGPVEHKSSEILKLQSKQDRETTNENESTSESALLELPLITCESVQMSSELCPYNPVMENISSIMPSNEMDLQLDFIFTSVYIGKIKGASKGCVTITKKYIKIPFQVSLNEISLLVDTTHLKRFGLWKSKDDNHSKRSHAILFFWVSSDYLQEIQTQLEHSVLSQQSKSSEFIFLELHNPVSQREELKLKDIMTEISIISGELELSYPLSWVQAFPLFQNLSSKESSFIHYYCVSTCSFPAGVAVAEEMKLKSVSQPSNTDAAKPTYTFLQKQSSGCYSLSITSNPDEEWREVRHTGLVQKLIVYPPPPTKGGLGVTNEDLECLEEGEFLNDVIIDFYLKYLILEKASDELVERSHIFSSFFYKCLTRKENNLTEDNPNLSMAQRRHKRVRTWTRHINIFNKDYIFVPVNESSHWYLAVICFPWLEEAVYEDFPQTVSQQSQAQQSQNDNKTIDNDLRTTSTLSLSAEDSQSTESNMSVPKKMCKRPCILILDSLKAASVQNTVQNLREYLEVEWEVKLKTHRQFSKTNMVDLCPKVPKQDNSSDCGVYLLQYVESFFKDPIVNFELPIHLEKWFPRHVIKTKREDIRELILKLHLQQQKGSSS

Nonstructural protein 1, sequence (Q194T2 whole entry): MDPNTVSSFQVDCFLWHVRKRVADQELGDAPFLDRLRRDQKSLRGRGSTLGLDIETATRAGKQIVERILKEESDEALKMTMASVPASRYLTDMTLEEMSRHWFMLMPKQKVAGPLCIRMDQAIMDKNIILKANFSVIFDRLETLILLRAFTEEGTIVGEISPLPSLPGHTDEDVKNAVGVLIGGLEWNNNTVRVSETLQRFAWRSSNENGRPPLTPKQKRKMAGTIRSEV

Structure (SMILES): Cc1cc(N2CCN(C)CC2)ccc1NC(=O)c1ccc(-c2ccc(Cl)cc2)o1
- IC50 (Nonstructural protein 1): 44 µM (active)
- EC50 [1]: 0.749 µM (active)
- EC50 [2]: 0.254 µM (active)
- EC50 [3]: 9.64 µM (active)
- EC50 [4]: > 92.4 µM (inactive)
- EC50 [5]: > 92.4 µM (inactive)
- EC50 (Mu-type opioid receptor): > 92.4 µM (inactive)

Structure (SMILES): O=C(CSC1=NCCS1)c1ccc(Cl)cc1
- AC50 (Escherichia coli [6]): 28 µM (active)

Structure (SMILES): Cc1ccccc1OCC(=O)Nc1nnc(-c2ccncc2)s1
- AC50 (Escherichia coli [7]): 39.7 µM (active)

Structure (SMILES): O=C(NCc1ccc2c(c1)OCO2)c1cc(O)nc2ccccc12
- AC50 (A-375 [8]): > 35 µM (active)
- AC50 (A-375 [9]): > 35 µM (active)

Structure (SMILES): Cc1cc(=O)oc2c3c(cc(OCC(=O)N4CCC(C(=O)O)CC4)c12)OC(C)(C)CC3
- AC50 (CAAX prenyl protease 2): 1.28 µM (active)
- AC50 (Trypsin): 1.51 µM (active)

Structure (SMILES): CC(Nc1nc(-c2cccnc2)nc2ccccc12)c1ccc(F)cc1 (stereo not drawn)
- EC50 [2]: 0.658 µM (active)
- EC50 [3]: 14.4 µM (active)
- AC50 [10]: 9.34 µM (active)

Structure (SMILES): Cc1ccc(CNc2ncnc3ccc(-c4ccc5c(c4)OCO5)cc23)o1
- AC50 [10]: 0.0226 µM (active)

Structure (SMILES): O=C(NCc1ccco1)c1ccc(COCC(F)(F)F)cc1
- AC50 (A-375 [8]): > 35 µM (active)
- AC50 (A-375 [9]): > 35 µM (active)

Structure (SMILES): CCOC(=O)c1c(-c2ccc(OC)cc2)oc2ccc(OC(=O)N(C)C)cc12
- AC50 (CAAX prenyl protease 2): 6.46 µM (active)

Structure (SMILES): C=CCn1c(SCC(=O)NCc2ccc3c(c2)OCO3)nnc1-c1cccnc1
- AC50 (Escherichia coli [7]): 50.2 µM (active)

Structure (SMILES): CN(C)CCCN(C(=O)c1ccc(S(=O)(=O)N2CCCCCC2)cc1)c1nc2c(F)cc(F)cc2s1
- EC50 [1]: 5.31 µM (active)
- EC50 [4]: > 92.4 µM (inactive)
- EC50 [5]: > 92.4 µM (inactive)
- EC50 (Mu-type opioid receptor): 33.4 µM (inactive)

Structure (SMILES): CCOc1cccc2sc(NC(=O)c3ccc(C#N)cc3)nc12
- IC50 [11]: > 99 µM (inactive)
- IC50 (Caspase-3): > 99 µM (inactive)
- IC50 [12]: > 99 µM (inactive)
- IC50 [13]: > 99 µM (inactive)

Structure (SMILES): CN(C(=O)C(=O)c1c[nH]c2ccccc12)C1CCCCC1
- IC50 [11]: > 99 µM (inactive)
- IC50 (Caspase-3): > 99 µM (inactive)
- IC50 [12]: > 99 µM (inactive)
- IC50 [13]: > 99 µM (inactive)
